Measurements taken from patent publication US20130072427A1, “GPR 119 MODULATORS” (Pfizer Inc., priority 2009, published 2013).
Several values for one entry are separate records, joined by “and”; a condition that tells them apart may be missing. Equal values may be shown once. Read-outs that look alike come from different tables or passages of the source.

Target: T1, human GPR119 (Homo sapiens, UniProt Q8TDV5)
T1 construct: host or cells: HEK293-CRE beta-lactamase cells
T1 sequence (Q8TDV5 1-335): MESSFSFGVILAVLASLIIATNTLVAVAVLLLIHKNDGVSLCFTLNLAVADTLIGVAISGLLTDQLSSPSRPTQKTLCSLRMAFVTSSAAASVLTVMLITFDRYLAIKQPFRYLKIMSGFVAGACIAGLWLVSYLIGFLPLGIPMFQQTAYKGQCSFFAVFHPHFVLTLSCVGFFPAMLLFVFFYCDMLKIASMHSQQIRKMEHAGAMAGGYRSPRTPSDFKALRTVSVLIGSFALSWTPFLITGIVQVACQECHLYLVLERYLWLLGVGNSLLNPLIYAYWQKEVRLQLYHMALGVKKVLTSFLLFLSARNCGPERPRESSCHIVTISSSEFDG
Experiment: cAMP functional assay (HTRF, hGPR119 HEK-CRE beta-lactamase cells)
Type: cell-based
Experimental: GPR119 agonist activity was also determined with a cell-based assay utilizing an HTRF (Homogeneous Time-Resolved Fluorescence) cAMP detection kit (cAMP dynamic 2 Assay Kit; Cis Bio cat #62AM4PEC) that measures cAMP levels in the cell. The method is a competitive immunoassay between native cAMP produced by the cells and the cAMP labeled with the dye d2. The tracer binding is visualized by a Mab anti-cAMP labeled with Cryptate. The specific signal (i.e. energy transfer) is inversely proportional to the concentration of cAMP in either standard or sample.
Specifically, hGPR119HEK-CRE beta-lactamase cells (Invitrogen 2.5×10^7/ml; the same cell line used in the beta-lactamase assay described above) are removed from cryopreservation and diluted in growth medium (Dulbecco's modified Eagle medium high glucose (DMEM; Gibco Cat #11995-065), 1% charcoal dextran treated fetal bovine serum (CD serum; HyClone Cat #SH30068.03), 1×MEM Nonessential amino acids (Gibco Cat #15630-080) and 25 mM HEPES pH 7.0 (Gibco Cat #15630-080)). The cell concentration was adjusted to 1.5×10^5 cells/ml and 30 mls of this suspension was added to a T-175 flask and incubated at 37 degrees Celsius in a humidified environment in 5% carbon dioxide. After 16 hours (overnight), the cells were removed from the T-175 flask (by rapping the side of the flask), centrifuged at 800×g and then re-suspended in assay medium (1×HBSS+CaCl2+MgCl2 (Gibco Cat #14025-092) and 25 mM HEPES pH 7.0 (Gibco Cat #15630-080)). The cell concentration was adjusted to 6.25×10^5 cells/ml with assay medium and 8 μl of this cell suspension (5000 cells) was added to each well of a white Greiner 384-well, low-volume assay plate (VWR cat #82051-458).
Varying concentrations of each compound to be tested were diluted in assay buffer containing 3-isobutyl-1-methylxanthin (IBMX; Sigma cat #15879) and added to the assay plate wells in a volume of 2 microL (final IBMX concentration was 400 microM and final DMSO concentration was 0.58%). Following 30 minutes incubation at room temperature, 5 microL of labeled d2 cAMP and 5 microL of anti-cAMP antibody (both diluted 1:20 in cell lysis buffer; as described in the manufacturers assay protocol) were added to each well of the assay plate. The plates were then incubated at room temperature and after 60 minutes, changes in the HTRF signal were read with an Envision 2104 multilabel plate reader using excitation of 330 nm and emissions of 615 and 665 nm. Raw data were converted to nM cAMP by interpolation from a cAMP standard curve (as described in the manufacturer's assay protocol) and EC50 determinations were made from an agonist-response curves analyzed with a curve fitting program using a 4-paramter logistic dose response equation.

[1] = hGPR119 HEK-CRE beta-lactamase cells, HTRF cAMP, 30 minutes, one line per run, read-out: Human cAMP Functional EC50
[2] = percent of maximal activity relative to standard GPR119 agonist (WO2005121121) at 10 μM, one line per run, read-out: Intrinsic Activity* (%) (cAMP)

Compound | EC50 [1] | Emax [2] [%] | EC50 (**the curve was extrapolated to 100% to calculate an EC50, read-out: Human cAMP Functional EC50 (nM), curve extrapolated to 100%) [nM] | Emax (**the curve was extrapolated to 100% to calculate an EC50, read-out: Intrinsic Activity* (%) (cAMP), curve extrapolated to 100%)
Cc1c(O[C@H]2CCN(C(=O)OC(C)(C)C)C[C@H]2F)ncnc1N1Cc2cnn(C)c2C1 (racemic) [Example 6, tert-Butyl (3,4-cis)-3-fluoro-4-{[5-methyl-6-(1-methyl-4,6-dihydropyrrolo[3,4-c]pyrazol-5(1H)-yl)pyrimidin-4-yl]oxy}piperidine-1-carboxylate (racemic)] | 39 nM and 35 nM and 133 nM and 289 nM | 60 | – | –
Cc1c(O[C@H]2CCN(C(=O)OC(C)(C)C)C[C@@H]2F)ncnc1N1Cc2cnn(C)c2C1 (racemic) [Example 8, tert-Butyl (3,4-trans)-3-fluoro-4-{[5-methyl-6-(1-methyl-4,6-dihydropyrrolo[3,4-c]pyrazol-5(1H)-yl)pyrimidin-4-yl]oxy}piperidine-1-carboxylate (racemic)] | 182 nM and 78 nM and 85 nM | – | – | –
Cc1c(O[C@H]2[C@@H]3COC[C@H]2CN(C(=O)OC(C)(C)C)C3)ncnc1N1Cc2cnn(C)c2C1 [Example 9, tert-Butyl (9-anti)-9-{[5-methyl-6-(1-methyl-4,6-dihydropyrrolo[3,4-c]pyrazol-5(1H)-yl)pyrimidin-4-yl]oxy}-3-oxa-7-azabicyclo[3.3.1]nonane-7-carboxylate] | 64 nM and 57 nM and 77 nM | 72 | – | –
CC(C)OC(=O)N1CCC(Oc2ncnc(N3Cc4cnn(C)c4C3)c2C#N)CC1 [Example 3, Isopropyyl 4-{[5-cyano-6-(1-methyl-4,6-dihydropyrrolo[3,4-c]pyrazol-5(1H)-yl)pyrimidin-4-yl]oxy}piperidine-1-carboxylate] | – | 51 | 6250 | 100
Cc1c(O[C@H]2CCN(C(=O)OC3(C)CC3)C[C@H]2F)ncnc1N1Cc2cnn(C)c2C1 (racemic) [Example 7, 1-Methylcyclopropyyl (3,4-cis)-3-fluoro-4-{[5-methyl-6-(1-methyl-4,6-dihydropyrrolo[3,4-c]pyrazol-5(1H)-yl)pyrimidin-4-yl]oxy}piperidine-1-carboxylate (racemic)] | 17 nM and 14 nM and 12 nM | 80 | – | –
Cc1c(OC2CCN(C(=O)OC(C)C)CC2)ncnc1N1Cc2cnn(C)c2C1 [Example 2, Isopropyyl 4-{[5-methyl-6-(1-methyl-4,6-dihydropyrrolo[3,4-c]pyrazol-5(1H)-yl)pyrimidin-4-yl]oxy}piperidine-1-carboxylate] | 296 nM and 170 nM and 135 nM and 434 nM | 45 | – | –
